Experimental data from patent US20030224978A1, “Compounds and methods for modulating apoptosis” (McGill University, priority 1996, published 2003).
“Also recorded” adds a separate entry of the source. Positions of bridges follow the written chain, without caps; N, C: chain ends. Residues, ends and D or L forms follow the SMILES beside them.

Key:
[1] = tested on: bovine pulmonary artery endothelial cells; test: Disruption of bovine endothelial cell adhesion; format: cell-based; conditions: 500 μg/ml, 30 minutes
Method: For use within one such assay, bovine pulmonary artery endothelial cells may be harvested by sterile ablation and digestion in 0.1% collagenase (type II; Worthington Enzymes, Freehold, N.J.). Cells may be maintained in Dulbecco's minimum essential medium supplemented with 10% fetal calf serum and 1% antibiotic-antimycotic at 37° C. in 7% CO2 in air. Cultures may be passaged weekly in trypsin-EDTA and seeded onto tissue culture plastic at 20,000 cells/cm^2. Endothelial cultures may be used at 1 week in culture, which is approximately 3 days after culture confluency is established. The cells may be seeded onto coverslips and treated (e.g., for 30 minutes) with modulating agent or a control compound at, for example, 500 μg/ml and then fixed with 1% paraformaldehyde. As noted above, disruption of cell adhesion may be determined visually within 24 hours, by observing retraction of the cells from one another. This assay evaluates the effect of a modulating agent on N-cadherin mediated cell adhesion.
Bovine pulmonary artery endothelial cells were harvested by sterile ablation and digestion in 0.1% collagenase (type II; Worthington Enzymes, Freehold, N.J.). Cells were maintained in Dulbecco's […] essential medium (Clonetics, San Diego, Calif.) supplemented with 10% fetal calf serum (Atlantic Biologicals, Nor cross, Ga.) and 1% antibiotic-antimycotic at 37° C. in 7% CO2 in air. Cultures were passaged weekly in trypsin-EDTA (Gibco, Grand Island, N.Y.) and seeded onto tissue culture plastic at 20,000 cells/cm^2 for all experiments. Endothelial cultures were used at 1 week in culture, which is approximately 3 days after culture confluency was established. The cells used in all protocols were between 4th passage and 10th passage. The cells were seeded onto coverslips and treated 30 minutes with N-Ac-CHAVC-NH2 (SEQ ID NO:10) or N-Ac-CHGVC-NH2 (SEQ ID NO:20) at 500 μg/ml and then fixed with 1% paraformaldehyde.

SKOV3 cells = test: Disruption of human ovarian cancer cell (SKOV3) adhesion; format: cell-based; conditions: for effect on SKOV3 cell adhesion: final concentration of 1 mg/mL media, within 24 hours; for activity on SKOV3 cell adhesion: 0.01-1 mg/mL, up to 48 hours
Source text: Within one representative cell adhesion assay, the addition of a modulating agent to cells that express a cadherin results in disruption of cell adhesion. A “cadherin-expressing cell,” as used herein, may be any type of cell that expresses at least one cadherin on the cell surface at a detectable level, using standard techniques such as immunocytochemical protocols (Blaschuk and Farookhi, Dev. Biol. 136:564-567, 1989). Cadherin-expressing cells include endothelial (e.g., bovine pulmonary artery endothelial cells), epithelial and/or cancer cells (e.g., the human ovarian cancer cell line SKOV3 (ATCC #HTB-77)). For example, such cells may be plated under standard conditions that permit cell adhesion in the presence and absence of modulating agent (e.g., 500 μg/mL). Disruption of cell adhesion may be determined visually within 24 hours, by observing retraction of the cells from one another.
The human ovarian cancer cell line SKOV3 (ATCC #HTB-77) expresses N-cadherin. SKOV3 cells were cultured in a modified MEM-based media containing 10% FCS. Cells were grown in T-250 culture flasks and maintained by periodic subculturing. Cyclic peptides were tested on cells grown in individual wells of 96-well culture dishes (surface area of each well was 0.32 cm^2). Cells were harvested from flasks and seeded at a density of 50,000 cells per well in 0.1 mL media containing the cyclic peptides at concentrations of 1, 0.1, or 0.01 mg/mL, or in the absence of cyclic peptide. Media control wells were also established. Cultures were evaluated periodically by microscopic examination under both bright field and phase contrast conditions. Cultures were maintained for 48 hours.

MDA-MB231 = format: cell-based, human; conditions: 3 h
in vitro [2] = format: cell-based; conditions: human
In short: (§1)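 Cytotoxicity assessed by MTT assay and proliferation by ³H-thymidine incorporation, with peptides tested at concentrations up to 100 μM.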

in vitro [3] = format: cell-based; conditions: human; remark: listed apart in the source
In short: as §1

IC50 (MDA-MB231) [µM] | IC50 (in vitro [2]) [µM] | IC50 (in vitro [3]) [µM] | SMILES | effect on endothelial cell monolayer / morphology [1] | SKOV3 cell morphology (SKOV3 cells; 0.5 mg/ml, 24 hours) | SKOV3 cell morphology (SKOV3 cells; 0.5 or 1 mg/ml, 24-48 hours) | effect on SKOV3 cell adhesion (SKOV3 cells) | activity on SKOV3 cell adhesion (SKOV3 cells)
> 100 | – | – | CC(=O)N[C@H]1CSSC[C@@H](C(N)=O)NC(=O)[C@H](C(C)C)NC(=O)[C@H](C)NC(=O)[C@H](Cc2c[nH]cn2)NC1=O [N-Ac-CHAVC-NH2, N-Ac-Cys-His-Ala-Val-Cys-NH2] | disrupted the endothelial cell monolayer; also recorded: retracted from one another | round-up | retract from one another and round-up | disrupted SKOV3 cell adhesion | –
> 100 | – | – | CC(=O)N[C@H]1CSSC[C@@H](C(N)=O)NC(=O)[C@H](C(C)C)NC(=O)CNC(=O)[C@H](Cc2c[nH]cn2)NC1=O [N-Ac-CHGVC-NH2, reference compound] | inactive | – | – | had no affect on cell adhesion | –

Further lines, the molecule ahead of its results:

SMILES | IC50 (MDA-MB231) [µM] | IC50 (in vitro [2]) [µM] | IC50 (in vitro [3]) [µM] | effect on endothelial cell monolayer / morphology [1] | SKOV3 cell morphology (SKOV3 cells; 0.5 mg/ml, 24 hours) | SKOV3 cell morphology (SKOV3 cells; 0.5 or 1 mg/ml, 24-48 hours) | effect on SKOV3 cell adhesion (SKOV3 cells) | activity on SKOV3 cell adhesion (SKOV3 cells)
CC(=O)N[C@H]1CSSC[C@@H](C(N)=O)NC(=O)[C@H](CO)NC(=O)[C@H](C(C)C)NC(=O)[C@H](C)NC(=O)[C@H](Cc2c[nH]cn2)NC1=O [N-Ac-CHAVSC-NH2, N-Ac-Cys-His-Ala-Val-Ser-Cys-NH2] (Ac-CHAVSC-NH2; disulfide 1-6) | – | > 100 | > 100 | had no effect on endothelial cell morphology | – | – | – | –
CC(=O)N[C@H]1CSSC[C@@H](C(N)=O)NC(=O)[C@H](CC(=O)O)NC(=O)[C@H](C(C)C)NC(=O)[C@H](C)NC(=O)[C@H](Cc2c[nH]cn2)NC(=O)[C@H](C)NC1=O [N-Ac-CAHAVDC-NH2, N-Ac-Cys-Ala-His-Ala-Val-Asp-Cys-NH2] (Ac-CAHAVDC-NH2; disulfide 1-7) | – | > 100 | > 100 | had a slight effect; also recorded: retracted from one another | – | – | – | inactive
CC[C@H](C)[C@@H]1NC(=O)[C@H](CC(=O)O)NC(=O)[C@H](C(C)C)NC(=O)[C@H](C)NC(=O)[C@H](Cc2c[nH]cn2)NC(=O)[C@H](C)NC(=O)[C@@H](NC(C)=O)CSSC[C@@H](C(N)=O)NC1=O (Ac-CAHAVDIC-NH2; disulfide 1-8) | – | > 100 | > 100 | had no effect on endothelial cell morphology; also recorded: neither of the cyclic peptides show activity | – | – | – | inactive
